Experimental data published in publication PMC10687169, “Insights into the recognition mechanism in the UBR box of UBR4 for its specific substrates” (Communications Biology, 2023).
Where a SMILES comes first, the peptide text is derived from it.

Target: T1, UBR4^UBR (UBR box of Human UBR4) (Homo sapiens, UniProt Q5T4S7)
T1 construct: UBR box residues 1660-1729 (Methods; Results b12 prints 1669-1729); N-terminal 10His-MBP tag kept for ITC, cut with TEV for crystals; E. coli BL21(DE3) RIL; three zinc ions; crystal 8J9R from YIFS-UBR4 (YIFS fused at N-terminus, LC3B tag removed by ATG4B)
Test: ITC
Format: binding
Settings: pH 7.5, 200 mM NaCl, 25 °C; 0.225 mM protein, 4.5 mM peptide; 10His-MBP-tagged protein

T1 sequence (Q5T4S7 1660-1729): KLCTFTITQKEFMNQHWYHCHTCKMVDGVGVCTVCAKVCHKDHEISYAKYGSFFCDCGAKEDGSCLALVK

With `CC[C@H](C)[C@H](NC(=O)[C@@H](N)CCCNC(=N)N)C(=O)N[C@@H](Cc1ccccc1)C(=O)N[C@@H](CO)C(=O)O` [RIFS] (H-RIFS-OH) the Kd was 626 ± 29 µM.
